Test results taken from publication PMC2852148 (Biochemistry, 2010).
Values joined by “and” are separate entries in the source; they are usually repeats but may differ in a detail not shown here. Equal entries are not always repeated. “Also recorded” adds a separate entry of the source.

Tests used:
RDL receptors [1] = target: T1, RDL receptors (Drosophila melanogaster, UniProt P25123); details: background statement; cited from earlier work
T1 sequence (P25123 45-606): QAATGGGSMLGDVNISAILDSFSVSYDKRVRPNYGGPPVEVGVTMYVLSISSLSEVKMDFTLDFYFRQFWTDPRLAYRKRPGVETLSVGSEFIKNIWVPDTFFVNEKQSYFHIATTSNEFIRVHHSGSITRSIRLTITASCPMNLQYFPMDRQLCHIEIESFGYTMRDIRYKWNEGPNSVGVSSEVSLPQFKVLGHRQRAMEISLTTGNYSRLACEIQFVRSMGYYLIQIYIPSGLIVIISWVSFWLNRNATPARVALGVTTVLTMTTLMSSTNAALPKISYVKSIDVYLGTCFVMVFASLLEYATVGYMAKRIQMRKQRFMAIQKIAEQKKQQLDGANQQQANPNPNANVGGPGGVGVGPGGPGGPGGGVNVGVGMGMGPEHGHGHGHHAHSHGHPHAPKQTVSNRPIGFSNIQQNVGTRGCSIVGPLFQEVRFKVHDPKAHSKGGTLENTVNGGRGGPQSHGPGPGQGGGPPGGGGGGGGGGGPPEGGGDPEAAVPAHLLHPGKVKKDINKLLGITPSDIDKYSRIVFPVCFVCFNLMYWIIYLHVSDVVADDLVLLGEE

RDL receptors [2] = target: T1, RDL receptors; assay: Two-electrode voltage clamp of RDL receptors expressed in Xenopus oocytes; assay type: cell-based; details: for EC50: EC50, RDL receptors in Xenopus oocytes; for nH (Hill coefficient) / Imax/Imax(GABA) / pEC50: means ± SEM; for Imax/Imax(GABA): maximal current relative to maximal GABA-evoked response; for pEC50: -60 mV, N/R = no response
[3] = RDL receptors in Xenopus oocytes
[4] = applied at concentrations up to 10 mM

Row | Molecule | EC50 (RDL receptors [2]; Table 1) | nH (Hill coefficient) (RDL receptors [2]; [3]) | Imax/Imax(GABA) (RDL receptors [2]) | pEC50 (RDL receptors [2]; [3]) | also measured
1 | picrotoxin | – | – | – | – | inhibition of homomeric RDL receptors (in words) (RDL receptors [1]): inhibited
2 | NCc1cc(=O)[nH]o1 [muscimol] | 9.04 µM | 2.2 ± 0.6 | 0.87 ± 0.03 | – | agonist type at RDL receptors (RDL receptors [2]; [3]): full agonist
3 | NCCCCC(=O)O [5-AV, 5-aminovaleric acid] | 1120 µM | 1.0 ± 0.3 | 0.85 ± 0.1 | – | EC50 (RDL receptors [2]): 1100 µM and ~1000 µM
4 | NCCCC(=O)O [GABA, γ-aminobutyric acid] | – | 1.8 ± 0.2 | – | – | –
5 | NCC(=O)O [glycine] | – | – | – | N/R | activation of RDL receptors (in words) (RDL receptors [2]; [3]): inactive; activation of RDL receptors (in words) (RDL receptors [2]; [4]): failed to activate
6 | NCC=CC(=O)O [TACA, 4-amino-2-butenoic acid] | 36.7 µM | 1.8 ± 0.2 | 1.0 ± 0.02 | – | –
7 | O=C(O)C1=CCNCC1 [isoguvacine] | 64.9 µM | 1.9 ± 0.2 | 0.97 ± 0.03 | – | –
8 | Oc1noc2c1CCNC2 [THIP, 4,5,6,7-tetrahydroisoxazolo[5,4-c]pyridin-3-ol] | 226 µM | 2.4 ± 1.0 | 0.57 ± 0.06 | – | EC50 (RDL receptors [2]): 220 µM; agonist type at RDL receptors (RDL receptors [2]; [3]): partial agonist
9 | NCCCCO [4-AB, 4-amino-1-butanol] | – | – | – | N/R | activation of RDL receptors (in words) (RDL receptors [2]; [3]): inactive; activation of RDL receptors (in words) (RDL receptors [2]; [4]): failed to activate
10 | NCCCP(=O)(O)O [3-APP, 3-aminopropylphosphonic acid] | – | – | – | N/R | activation of RDL receptors (in words) (RDL receptors [2]; [3]): no activating effect; also recorded: inactive
11 | NCCC(=O)O [β-alanine] | 807 µM | 2.0 ± 0.3 | 1.0 ± 0.03 | – | EC50 (RDL receptors [2]): 800 µM and ~1000 µM
12 | NCCc1ccc(O)cc1 [tyramine] | – | – | – | N/R | activation of RDL receptors (in words) (RDL receptors [2]; [3]): inactive; activation of RDL receptors (in words) (RDL receptors [2]; [4]): failed to activate
13 | CN1CCc2cc3c(cc2[C@H]1[C@@H]1OC(=O)c2c1ccc1c2OCO1)OCO3 [bicuculline] | – | – | – | – | inhibition of homomeric RDL receptors (in words) (RDL receptors [1]): not inhibited
14 | Nc1ccc(C(=O)O)cc1 [PABA, p-aminobenzoic acid] | – | – | – | N/R | activation of RDL receptors (in words) (RDL receptors [2]; [4]): failed to activate
15 | NCCS(=O)(=O)O [taurine] | > 10000 µM | – | – | – | EC50 (RDL receptors [2]): > 10000 µM
